# Laboratory results from BindingDB's records for doi:10.1016/s0014-2999(98)00159-9 (Novartis Pharma, 1998).
# pKi: −log10 of the molar value. Where “and” joins values, the source holds several entries; their conditions need not be identical. Equal values may be shown once. Where a SMILES comes first, the peptide text is derived from it. Bridges are numbered along the chain shown (N, C = ends). [ ]: non-standard residue; d: D form. The star is where a group is joined. d1Nal = N[C@H](Cc1cccc2ccccc12)C(=O)O; Ahp = NCCCCCCC(=O)O; Bn = c1ccc(C*)cc1
# Molecular target: Somatostatin receptor type 5 (Homo sapiens, UniProt P35346)
# Sequence (P35346 whole entry): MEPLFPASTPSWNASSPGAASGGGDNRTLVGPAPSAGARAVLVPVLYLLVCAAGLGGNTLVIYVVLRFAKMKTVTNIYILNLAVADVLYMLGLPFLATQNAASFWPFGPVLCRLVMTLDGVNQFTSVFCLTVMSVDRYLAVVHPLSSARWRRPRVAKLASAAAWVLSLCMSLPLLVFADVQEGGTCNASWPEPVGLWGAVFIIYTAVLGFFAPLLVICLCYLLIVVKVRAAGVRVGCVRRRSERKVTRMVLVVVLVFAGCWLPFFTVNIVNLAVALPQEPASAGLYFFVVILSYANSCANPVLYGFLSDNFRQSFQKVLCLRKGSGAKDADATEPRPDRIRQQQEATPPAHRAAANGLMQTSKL
row,pKi,SMILES
1,9.24 and 8.71 and 9.35,C[C@@H](O)[C@@H]1NC(=O)[C@H](CCCCN)NC(=O)[C@H](Cc2c[nH]c3ccccc23)NC(=O)[C@H](Cc2ccccc2)NC(=O)[C@H](Cc2ccccc2)NC(=O)[C@H](CC(N)=O)NC(=O)[C@H](CCCCN)NC(=O)[C@@H](NC(=O)[C@@H]2CCCN2)CSSC[C@@H](C(=O)N[C@@H](CCCCN)C(=O)O)NC(=O)[C@H](CO)NC(=O)[C@H](CO)NC(=O)[C@H](Cc2ccccc2)NC1=O [CORTISTATIN-14] (H-PCKNFFWKTFSSCK-OH; disulfide 2-13)

# Molecular target: Somatostatin receptor type 2 (Homo sapiens, UniProt P30874)
# Sequence (P30874 whole entry): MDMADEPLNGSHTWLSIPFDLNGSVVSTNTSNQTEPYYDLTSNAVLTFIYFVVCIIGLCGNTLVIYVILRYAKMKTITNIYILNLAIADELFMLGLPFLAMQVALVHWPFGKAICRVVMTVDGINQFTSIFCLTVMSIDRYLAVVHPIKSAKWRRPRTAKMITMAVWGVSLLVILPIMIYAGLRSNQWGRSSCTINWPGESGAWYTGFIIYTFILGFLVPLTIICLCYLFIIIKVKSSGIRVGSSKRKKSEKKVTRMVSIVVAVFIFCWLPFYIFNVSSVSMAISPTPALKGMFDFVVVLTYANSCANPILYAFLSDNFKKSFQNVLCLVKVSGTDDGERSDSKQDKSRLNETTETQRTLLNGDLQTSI
row,SMILES,pKi
1,C[C@@H](O)[C@@H]1NC(=O)[C@H](CCCCN)NC(=O)[C@@H](Cc2c[nH]c3ccccc23)NC(=O)[C@H](Cc2ccccc2)NC(=O)[C@@H]2CCCN2C(=O)[C@H](Cc2ccccc2)NC1=O (cyclo(PF[dW]KTF)),8.28 and 8.39 and 8.32 and 9.28
2,CC(C)[C@@H]1NC(=O)[C@H](CCCCN)NC(=O)[C@@H](Cc2c[nH]c3ccccc23)NC(=O)[C@H](Cc2ccc(O)cc2)NC(=O)[C@@H](NC(=O)[C@H](N)Cc2ccc3ccccc3c2)CSSC[C@@H](C(=O)N[C@H](C(N)=O)[C@@H](C)O)NC1=O [3-(2-Naphtyl)-D-Ala-L-Cys(1)-L-Tyr-D-Trp-L-Lys-L-Val-L-Cys(1)-L-Thr-NH2],9.28 and 8.86 and 9.55 and 9.68
3,CC(C)[C@H](NC(=O)[C@H](CCCCN)NC(=O)[C@@H](Cc1c[nH]c2ccccc12)NC(=O)[C@H](Cc1ccc(O)cc1)NC(=O)[C@H](Cc1ccccc1)NC(=O)[C@H](N)Cc1ccccc1)C(=O)N[C@@H](Cc1ccccc1)C(=O)N[C@H](Cc1cccc2ccccc12)C(N)=O [BIM 23056] (H-[dF]FY[dW]KVF[d1Nal]-NH2),6.33 and 6.14 and 6.38 and 6.65
4,C[C@@H](O)[C@H](NC(=O)[C@H](Cc1ccccc1)NC(=O)[C@@H](NC(=O)[C@H](CCCCN)NC(=O)[C@@H](Cc1c[nH]c2ccccc12)NC(=O)[C@H](Cc1ccccc1)NC(=O)[C@H](Cc1ccccc1)NC(=O)[C@H](N)Cc1ccccc1)[C@@H](C)O)C(N)=O [CAS_133073-82-2] (H-[dF]FF[dW]KTFT-NH2),8.76 and 8.30 and 7.78 and 8.55 and 8.73

# Continued, values first:
row,pKi,SMILES
1,9.04 and 8.75 and 8.35,C[C@@H](O)[C@@H]1NC(=O)[C@H](CCCCN)NC(=O)[C@H](Cc2c[nH]c3ccccc23)NC(=O)[C@H](Cc2ccccc2)NC(=O)[C@H](Cc2ccccc2)NC(=O)[C@H](CC(N)=O)NC(=O)[C@H](CCCCN)NC(=O)[C@@H](NC(=O)[C@@H]2CCCN2)CSSC[C@@H](C(=O)N[C@@H](CCCCN)C(=O)O)NC(=O)[C@H](CO)NC(=O)[C@H](CO)NC(=O)[C@H](Cc2ccccc2)NC1=O [CORTISTATIN-14] (H-PCKNFFWKTFSSCK-OH; disulfide 2-13)
2,8.69 and 8.36 and 8.79,C[C@@H](O)[C@@H]1NC(=O)[C@H](CCCCN)NC(=O)[C@@H](Cc2c[nH]c3ccccc23)NC(=O)[C@H](Cc2c[nH]c3ccccc23)NC(=O)[C@H](Cc2ccccc2)NC(=O)CCCCCCNC(=O)[C@H](Cc2ccccc2)NC1=O [L-362855] (cyclo([Ahp]FW[dW]KTF))
3,5.80 and 5.40 and 5.43 and 5.77 and 5.90,C[C@@H](OCc1ccccc1)[C@@H]1NC(=O)[C@H](CCCCN)NC(=O)[C@@H](Cc2c[nH]c3ccccc23)NC(=O)[C@H](Cc2ccccc2)NC(=O)CCCCCCNC1=O [c[Aha-Phe-D-Trp-Lys-Thr(Bzl)]] (cyclo([Ahp]F[dW]KT(Bn)))
